Laboratory results published in ChEMBL document CHEMBL4477215, “Specific Correction of Alternative Survival Motor Neuron 2 Splicing by Small Molecules: Discovery of a Potential Novel Medicine To Treat Spinal Muscular Atrophy” (J Med Chem, 2016).
pIC50: −log10 of the molar value. Calls of active or inactive are those of the source. The rule behind the calls is not given here.

Tests used:
[1] = organism: Homo sapiens; assay: Inhibition of mRNA splicing of SMN2 exon 7 in fibroblasts derived from human SMA type 1/2/3 patient assessed as increase in SMN protein level after 48 hrs by HTRF assay
[2] = Mutagenicity in Salmonella typhimurium TA1535 assessed as increase in revertant colonies after 2 days in presence of rat liver S9 fraction by Ames test relative to control; format: toxicity; conditions: salmonella enterica subsp. enterica serovar typhimurium, s9, 48 h
[3] = Mutagenicity in Salmonella typhimurium TA98 assessed as increase in revertant colonies after 2 days in presence of rat liver S9 fraction by Ames test relative to control; format: toxicity; conditions: salmonella enterica subsp. enterica serovar typhimurium, s9, 48 h
[4] = Mutagenicity in Salmonella typhimurium TA97 assessed as increase in revertant colonies after 2 days in presence of rat liver S9 fraction by Ames test relative to control; format: toxicity; conditions: salmonella enterica subsp. enterica serovar typhimurium, s9, 48 h
[5] = Mutagenicity in Salmonella typhimurium TA100 assessed as increase in revertant colonies after 2 days in presence of rat liver S9 fraction by Ames test relative to control; format: toxicity; conditions: salmonella enterica subsp. enterica serovar typhimurium, s9, 48 h
[6] = Mutagenicity in Salmonella typhimurium TA102 assessed as increase in revertant colonies after 2 days in presence of rat liver S9 fraction by Ames test relative to control; format: toxicity; conditions: salmonella enterica subsp. enterica serovar typhimurium, s9, 48 h
[7] = organism: Homo sapiens; assay: Inhibition of mRNA splicing of SMN2 exon 7 in GM03813 fibroblasts derived from human SMA type 1 patient after 24 hrs by RT-qPCR analysis
[8] = Stability in human plasma assessed as compound remaining after 5 hrs; format: ADME, cell-free; conditions: read-out: Stability
[9] = Octanol-aqueous phosphate buffer distribution coefficient, log D of the compound at pH 7.4 at 100 mM after 24 hrs by LC-MS based shake flask method; format: physicochemical
[10] = target: P-gp (ABCB1) (Homo sapiens, UniProt P08183); assay: Substrate activity at human P-gp assessed as efflux ratio by cell based assay; conditions: not told
[11] = test system: NIH3T3; assay: Phototoxicity in mouse 3T3 cells in presence of UVA irradiation; format: functional, cell-based; conditions: NIH3T3, light or radiation study
[12] = Stability of the compound in human plasma; format: ADME, cell-free
[13] = Stability of the compound in pH 1 to 12 aqueous buffer; format: physicochemical

Sequence of P-gp (ABCB1) (P08183 whole entry): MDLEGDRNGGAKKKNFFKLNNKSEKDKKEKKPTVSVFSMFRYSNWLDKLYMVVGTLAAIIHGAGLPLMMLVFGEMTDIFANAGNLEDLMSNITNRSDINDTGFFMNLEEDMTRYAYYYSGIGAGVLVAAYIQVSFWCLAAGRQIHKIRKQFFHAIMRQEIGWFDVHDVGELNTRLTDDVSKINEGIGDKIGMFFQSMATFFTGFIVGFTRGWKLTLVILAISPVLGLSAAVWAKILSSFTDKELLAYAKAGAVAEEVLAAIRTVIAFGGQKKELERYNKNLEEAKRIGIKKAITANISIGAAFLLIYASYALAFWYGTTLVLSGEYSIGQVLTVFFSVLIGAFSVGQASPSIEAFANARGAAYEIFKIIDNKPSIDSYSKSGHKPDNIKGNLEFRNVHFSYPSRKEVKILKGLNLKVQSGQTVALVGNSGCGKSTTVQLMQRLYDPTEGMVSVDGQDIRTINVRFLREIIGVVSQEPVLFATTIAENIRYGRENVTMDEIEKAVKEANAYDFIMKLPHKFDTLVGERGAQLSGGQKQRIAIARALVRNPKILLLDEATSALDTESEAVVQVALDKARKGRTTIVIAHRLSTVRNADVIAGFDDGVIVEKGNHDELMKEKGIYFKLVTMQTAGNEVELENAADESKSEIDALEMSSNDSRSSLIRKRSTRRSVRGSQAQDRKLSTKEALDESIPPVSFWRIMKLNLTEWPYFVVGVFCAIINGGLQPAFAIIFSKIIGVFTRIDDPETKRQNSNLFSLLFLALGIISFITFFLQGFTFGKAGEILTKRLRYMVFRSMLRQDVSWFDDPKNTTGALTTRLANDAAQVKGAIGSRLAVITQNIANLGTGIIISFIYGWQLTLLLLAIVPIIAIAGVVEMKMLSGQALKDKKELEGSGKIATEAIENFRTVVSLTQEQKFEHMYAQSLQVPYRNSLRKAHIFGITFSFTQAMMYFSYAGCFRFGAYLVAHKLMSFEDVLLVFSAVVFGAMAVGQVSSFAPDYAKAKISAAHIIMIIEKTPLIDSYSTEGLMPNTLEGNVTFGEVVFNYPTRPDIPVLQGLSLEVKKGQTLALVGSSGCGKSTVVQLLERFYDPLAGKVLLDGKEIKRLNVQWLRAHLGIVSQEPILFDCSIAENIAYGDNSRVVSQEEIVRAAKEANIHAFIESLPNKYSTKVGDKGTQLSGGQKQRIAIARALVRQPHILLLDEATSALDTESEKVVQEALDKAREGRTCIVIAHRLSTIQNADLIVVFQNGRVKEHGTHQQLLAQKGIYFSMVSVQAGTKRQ

With `CCc1nc(C)cn2nc(-c3cc(=O)n4cc(N5CCN6CCC[C@H]6C5)ccc4n3)cc12` the EC1.5 [1] was 163 nM, the Activity [2] was “Non-Toxic” and the Activity [3] was “Non-Toxic”. The Activity [4] was “Non-Toxic”, the Activity [5] was “Non-Toxic” and the Activity [6] was “Non-Toxic”. For the same compound, the EC1.5 [7] was 40 nM.
In the case of `CC(=O)c1cc2ccc(F)cc2c(=O)o1`, the remaining at 5 h [8] was 16%.
With `Cc1cn2nc(-c3cc(=O)n4cc(C5CCN(C)CC5)cc(C)c4n3)cc2c(C)n1` the EC1.5 [1] was 77 nM, the Activity [2] was “Non-Toxic” and the Activity [3] was “Non-Toxic”. For the same compound, the Activity [4] was “Non-Toxic”, the Activity [5] was “Non-Toxic” and the Activity [6] was “Non-Toxic”. The EC1.5 [7] was 57 nM, the logD at 24 h [9] was 1.82 and the efflux ratio [10] was 1.2.
In the case of `CCc1nc(C)cn2nc(-c3cc(=O)n4cc(C5=CCNCC5)cc(C)c4n3)cc12`, the EC1.5 [1] was 15 nM, the Activity [2] was “Non-Toxic” and the Activity [3] was “Non-Toxic”. The Activity [4] was “Non-Toxic”, the Activity [5] was “Non-Toxic” and the Activity [6] was “Non-Toxic”. For the same compound, the EC1.5 [7] was 6 nM.
With `Cc1cn2cc(-c3cc4ccc(N5CCN(C)CC5)cc4c(=O)o3)nc2c(C)n1` the remaining at 5 h [8] was 55% and the pIC50 [11] was 6.82.
For `Cc1cn2cc(-c3cc(=O)n4cc(N5CCNCC5)ccc4n3)cc(F)c2n1`, the EC1.5 [1] was 9 nM, the Activity [2] was “Non-Toxic” and the Activity [3] was “Non-Toxic”. For the same compound, the Activity [4] was “Non-Toxic”, the Activity [5] was “Non-Toxic” and the Activity [6] was “Non-Toxic”. The EC1.5 [7] was 1 nM.
For `Cc1cn2cc(-c3cc(=O)n4cc(N5CCC(N6CCCC6)CC5)ccc4n3)cc(C(F)(F)F)c2n1`, the EC1.5 [1] was 76 nM, the logD at 24 h [9] was 1.45 and the efflux ratio [10] was 8.5.
In the case of `Cc1cn2cc(-c3cc4ccc(F)cc4c(=O)o3)nc2c(C)n1`, the remaining at 5 h [8] was 30%.
`CCN1CCN(c2ccc3cc(-c4cn5cc(C)nc(C)c5n4)c(=O)oc3c2)C[C@@H]1C` showed a remaining at 5 h [8] of 93% and a pIC50 [11] of 7.10.
For `CCN1CCC(c2cc(C)c3nc(-c4cc5c(C)nc(C)cn5n4)cc(=O)n3c2)CC1`, the EC1.5 [1] was 84 nM, the Activity [2] was “Non-Toxic” and the Activity [3] was “Non-Toxic”. The Activity [4] was “Non-Toxic”, the Activity [5] was “Non-Toxic” and the Activity [6] was “Non-Toxic”. The EC1.5 [7] was 30 nM, the logD at 24 h [9] was 1.87 and the efflux ratio [10] was 1.4.
`Cc1nc2c(F)cc(-c3cc(=O)n4cc(N5CCN(C)CC5)ccc4n3)cc2o1` gave an EC1.5 [1] of 13 nM, a fold change (FC) [2] of less than 2 and a fold change (FC) [3] of less than 2. For the same compound, the fold change (FC) [4] was less than 1.5, the fold change (FC) [5] was less than 1.5 and the fold change (FC) [6] was less than 1.5. For the same compound, the EC1.5 [7] was 3 nM, the logD at 24 h [9] was 2.46 and the efflux ratio [10] was 1.1.
With `Cc1nc2ccc(-c3cc(=O)n4cc(N5CCN(C)CC5)ccc4n3)cn2n1` the EC1.5 [1] was 820 nM, the fold change (FC) [2] was less than 2 and the fold change (FC) [3] was less than 2. The fold change (FC) [4] was less than 1.5, the fold change (FC) [5] was less than 1.5 and the fold change (FC) [6] was less than 1.5. The EC1.5 [7] was 314 nM.
With `Cc1cn2nc(-c3cc(=O)n4cc(N5CCN(C)CC5)ccc4n3)cc2c(C)n1` the EC1.5 [1] was 170 nM, the Activity [2] was “Non-Toxic” and the Activity [3] was “Non-Toxic”. The Activity [4] was “Non-Toxic”, the Activity [5] was “Non-Toxic” and the Activity [6] was “Non-Toxic”. For the same compound, the EC1.5 [7] was 92 nM, the pIC50 [11] was 5.54 and the Stability [12] was “Stable”. For the same compound, the Stability [13] was “Stable”.
In the case of `CN1CCN(c2ccc3nc(-c4ccc5nccn5c4)cc(=O)n3c2)CC1`, the EC1.5 [1] was 3400 nM, the fold change (FC) [2] was less than 2 and the fold change (FC) [3] was less than 2. For the same compound, the fold change (FC) [4] was less than 1.5, the fold change (FC) [5] was less than 1.5 and the fold change (FC) [6] was less than 1.5. It also gave an EC1.5 [7] of 582 nM.
Compound `Cc1cn2cc(-c3cc(=O)n4cc(N5CCN(C)CC5)ccc4n3)ccc2n1` has an EC1.5 [1] of 760 nM, a fold change (FC) [2] of less than 2 and a fold change (FC) [3] of less than 2. It also gave a fold change (FC) [4] of less than 1.5, a fold change (FC) [5] of less than 1.5 and a fold change (FC) [6] of less than 1.5. The EC1.5 [7] was 182 nM.
For `Cc1nc2c(F)cc(-c3cc(=O)n4cc(N5CCNCC5)ccc4n3)cc2o1`, the EC1.5 [1] was 4 nM, the fold change (FC) [2] was less than 2 and the fold change (FC) [3] was less than 2. The fold change (FC) [4] was less than 1.5, the fold change (FC) [5] was less than 1.5 and the fold change (FC) [6] was less than 1.5. For the same compound, the EC1.5 [7] was 1 nM.
In the case of `Cc1nc2ccc(-c3cc(=O)n4cc(N5CCN(C)CC5)ccc4n3)cc2o1`, the EC1.5 [1] was 395 nM, the fold change (FC) [2] was less than 2 and the fold change (FC) [3] was less than 2. It also gave a fold change (FC) [4] of less than 1.5, a fold change (FC) [5] of less than 1.5 and a fold change (FC) [6] of less than 1.5. For the same compound, the EC1.5 [7] was 148 nM.
For `CN1CCN(c2ccc3nc(-c4ccc5c(c4)ncn5C)cc(=O)n3c2)CC1`, the EC1.5 [1] was “inactive”, the fold change (FC) [2] was less than 2 and the fold change (FC) [3] was less than 2. For the same compound, the fold change (FC) [4] was less than 1.5, the fold change (FC) [5] was less than 1.5 and the fold change (FC) [6] was less than 1.5. For the same compound, the EC1.5 [7] was “inactive”.
`Cc1cn2cc(-c3cc(=O)n4cc(N5CCC(N6CCC6)CC5)ccc4n3)cc2c(C)n1` showed an EC1.5 [1] of 46 nM, a logD at 24 h [9] of 1.53 and an efflux ratio [10] of 6.6.
